Results as given in patent publication US20110039857A1, “PIPERIDINE AND PYROOLIDINE COMPOUNDS” (priority 2008, published 2011).
pIC50: −log10 of the molar value.

Experiments:
human orexin-1 receptor = target: T1, human orexin-1 receptor (Homo sapiens, UniProt O43613); test: Intracellular calcium measurements (FLIPR), orexin receptor antagonistic activity; type: cell-based; details: CHO cells expressing human orexin-1 receptor; agonist 3 nM orexin-A; read-out: OX1 IC50
T1 construct: expressed in transfected cells; host or cells: CHO (Chinese hamster ovary) cells under G418 selection
T1 sequence (O43613 1-425): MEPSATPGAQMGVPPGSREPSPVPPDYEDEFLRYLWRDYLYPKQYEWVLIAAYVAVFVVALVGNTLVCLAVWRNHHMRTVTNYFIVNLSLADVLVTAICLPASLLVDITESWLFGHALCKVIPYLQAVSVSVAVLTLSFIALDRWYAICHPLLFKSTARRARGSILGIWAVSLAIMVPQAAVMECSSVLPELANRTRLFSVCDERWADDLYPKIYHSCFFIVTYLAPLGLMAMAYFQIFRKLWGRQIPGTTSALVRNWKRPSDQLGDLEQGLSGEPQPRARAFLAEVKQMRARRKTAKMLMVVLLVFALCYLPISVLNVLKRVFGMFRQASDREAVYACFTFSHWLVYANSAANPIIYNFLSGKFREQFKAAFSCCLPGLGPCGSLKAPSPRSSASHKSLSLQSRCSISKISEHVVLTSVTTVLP
Method: (§1) The orexin receptor antagonistic activity of the compounds of formula (I) is determined in accordance with the following experimental method.
(§2) Intracellular Calcium Measurements:
(§3) Chinese hamster ovary (CHO) cells expressing the human orexin-1 receptor and the human orexin-2 receptor, respectively, are grown in culture medium (Ham F-12 with L-Glutamine) containing 300 μg/ml G418, 100 U/ml penicillin, 100 μg/ml streptomycin and 10% heat inactivated fetal calf serum (FCS). The cells are seeded at 20′000 cells/well into 384-well black clear bottom sterile plates (Greiner). The seeded plates are incubated overnight at 37° C. in 5% CO2.
(§4) Human orexin-A as an agonist is prepared as 1 mM stock solution in MeOH: water (1:1), diluted in HBSS containing 0.1% bovine serum albumin (BSA), NaHCO3: 0.375g/l and 20 mM HEPES for use in the assay at a final concentration of 3 nM.
(§5) Antagonists are prepared as 10 mM stock solution in DMSO, then diluted in 384-well plates using DMSO followed by a transfer of the dilutions into in HBSS containing 0.1% bovine serum albumin (BSA), NaHCO3: 0.375g/l and 20 mM HEPES. On the day of the assay, 50 μl of staining buffer (HBSS containing 1% FCS, 20 mM HEPES, NaHCO3: 0.375g/l, 5 mM probenecid (Sigma) and 3 μM of the fluorescent calcium indicator fluo-4 AM (1 mM stock solution in DMSO, containing 10% pluronic) is added to each well. The 384-well cell-plates are incubated for 50 min at 37° C. in 5% CO2 followed by equilibration at RT for 30-120 min before measurement.
(§6) Within the Fluorescent Imaging Plate Reader (FLIPR, Molecular Devices), antagonists are added to the plate in a volume of 10 μl/well, incubated for 10 min and finally 10 μl/well of agonist is added. Fluorescence is measured for each well at 1 second intervals, and the height of each fluorescence peak is compared to the height of the fluorescence peak induced by 3 nM orexin-A with vehicle in place of antagonist. For each antagonist, the IC50 value (the concentration of compound needed to inhibit 50% of the agonistic response) is determined.

human orexin-2 receptor = target: T2, human orexin-2 receptor (Homo sapiens, UniProt O43614); test: as above; type: cell-based; details: CHO cells expressing human orexin-2 receptor; agonist 3 nM orexin-A; read-out: OX2 IC50
T2 construct: expressed in transfected cells; host or cells: CHO (Chinese hamster ovary) cells under G418 selection
T2 sequence (O43614 1-444): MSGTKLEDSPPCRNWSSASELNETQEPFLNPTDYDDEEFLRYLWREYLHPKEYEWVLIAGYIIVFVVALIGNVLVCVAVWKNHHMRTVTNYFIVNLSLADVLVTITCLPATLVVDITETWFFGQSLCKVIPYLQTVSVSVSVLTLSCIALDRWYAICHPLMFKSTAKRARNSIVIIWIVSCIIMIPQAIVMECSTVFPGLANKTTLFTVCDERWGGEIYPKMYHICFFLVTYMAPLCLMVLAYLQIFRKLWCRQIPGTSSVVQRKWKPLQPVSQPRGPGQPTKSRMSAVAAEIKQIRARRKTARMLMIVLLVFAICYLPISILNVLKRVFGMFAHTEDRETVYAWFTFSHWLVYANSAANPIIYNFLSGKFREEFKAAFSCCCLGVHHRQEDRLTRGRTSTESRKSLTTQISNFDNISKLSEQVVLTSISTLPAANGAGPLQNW
Method: as §1, §2, §3, §4, §5, §6

SMILES	pIC50 (human orexin-1 receptor)	pIC50 (human orexin-2 receptor)
Cc1ccc(-c2ccccc2C(=O)N2CCC[C@@H](Nc3nccc(C(F)(F)F)n3)C2)cc1C [Example 1, (R)-(3′,4′-Dimethyl-biphenyl-2-yl)-[3-(4-trifluoromethyl-pyrimidin-2-ylamino)-piperidin-1-yl]-methanone]	7.24	7.37
COc1cc(OC)nc(N[C@@H]2CCCN(C(=O)c3ccccc3-c3ccc(C)c(C)c3)C2)n1 [Example 2, (R)-[3-(4,6-Dimethoxy-pyrimidin-2-ylamino)-piperidin-1-yl]-(3′,4′-dimethyl-biphenyl-2-yl)-methanone]	7.60	8.00
Cc1ccc(-c2ccccc2C(=O)N2CCC[C@@H](Nc3cnc4ccccc4n3)C2)cc1C [Example 6, (R)-(3′,4′-Dimethyl-biphenyl-2-yl)-[3-(quinoxalin-2-ylamino)-piperidin-1-yl]-methanone]	7.89	7.96
Cc1cccc(-c2ccccc2C(=O)N2CCC[C@@H](NC(=O)c3nn(C)c4ccccc34)C2)c1 [Example 34, (R)-1-Methyl-1H-indazole-3-carboxylic acid[1-(3′-methyl-biphenyl-2-carbonyl)-piperidin-3-yl]-amide]	7.48	7.82
Cc1ccc(-c2ccccc2C(=O)N2CCC[C@@H](NC(=O)c3cn(C)c4ccccc34)C2)cc1C [Example 41, (R)-1-Methyl-1H-indole-3-carboxylic acid[1-(3′,4′-dimethyl-biphenyl-2-carbonyl)-piperidin-3-yl]-amide]	7.49	7.60
